Read-outs that look alike come from different tables or passages of the source. No end group written: not given here.
Assays:
POMC neurons [1] = experiment: Whole cell recordings of membrane potential of EGFP-labeled POMC neurons in arcuate (ARC) slices; format: cell-based, mouse
POMC neurons [2] = experiment: Action potential frequency / firing rate of POMC neurons (whole cell and loose cell-attached); format: cell-based, mouse; settings: for POMC neuron firing rate (frequency of action potentials): fenfluramine 20 μM, loose-cell-attached, n=3
POMC neurons [3] = experiment: GABAergic IPSCs recorded in POMC neurons of ARC slices; format: cell-based, mouse
hypothalamic explants = hypothalamic explants (Batterham et al.); cited from earlier work
POMC neurons [4] = experiment: I-V relationships of drug-induced currents in POMC neurons; format: cell-based, mouse; settings: leptin 100 nM, slow voltage ramps
[5] = tested on: non-POMC neurons in the arcuate nucleus; experiment: Membrane potential of non-fluorescent (non-POMC) neurons in the arcuate nucleus; format: cell-based, mouse; settings: 13 cells tested; also hyperpolarized 5 and depolarized 3

CCNC(C)Cc1cccc(C(F)(F)F)c1 (stereo not drawn) [Fenfluramine, fenfluramine]
resting membrane potential of POMC neurons (depolarization) (POMC neurons [1]): depolarized POMC neurons | POMC neuron firing rate (frequency of action potentials) (POMC neurons [2]): two fold increase | POMC neuron firing rate (frequency of action potentials) (POMC neurons [2]; listed as d-FEN): doubling

Clc1cncc(N2CCNCC2)n1 [MK 212, 6-Chloro-2-(1-piperazinyl)pyrazine]
resting membrane potential of POMC neurons (depolarization) (POMC neurons [1]): depolarized POMC neurons

NC1=N[C@H](O)[C@H]2[C@H]3O[C@]4(O)O[C@@H]([C@@H](O)[C@@]2(N1)[C@@H]4O)[C@]3(O)CO [TTX, tetrodotoxin]
large amplitude IPSCs (POMC neurons [3]): abolished large IPSCs

Clc1cccc(N2CCNCC2)c1 [mCPP, 1-(3-Chlorophenyl)piperazine]
resting membrane potential of POMC neurons (depolarization) (POMC neurons [1]): depolarized POMC neurons

NCCc1c[nH]c2ccc(O)cc12 [serotonin]
resting membrane potential of POMC neurons (depolarization) (POMC neurons [1]; serotonin receptor agonists bath-applied four minutes, whole cell, n=4-8 per dose): increased the resting membrane potential (depolarized)

D-Trp^8-γMSH
increase of frequency of GABAergic IPSCs (POMC neurons [3]; D-Trp8-γMSH 7 nM, 3 of 4 POMC neurons): 280±90% | frequency of action potentials (POMC neurons [2]; D-Trp8-γMSH 7 nM): decreased the frequency of action potentials

N-acetyl (Leu^28, Leu^31) NPY (24-36) (Ac-LRHYLNLLTRQRY; ends and bridges not checked) [Y2A]
depolarization of POMC neurons (POMC neurons [1]; whole cell, PYY3-36 (10 nM, FIG. 6a) n=22, 19 of 22 depolarized, Y2A n=9): 8.7±1.8 mV | reduction of frequency of IPSCs onto POMC neurons (POMC neurons [3]; PYY3-36 (50 nM, FIG. 6c) n=13, Y2A n=8): 44.4±9.3% | A-MSH release (hypothalamic explants): concomitant increase in A-MSH release | NPY release (hypothalamic explants): significantly decreased NPY release

ghrelin: agent known to increase feeding, caloric intake, and appetite, and decrease energy expenditure (GSSFLSPEHQRVQQRKESKKPPAKLQPR; ends and bridges not checked; UniProt Q9UBU3 24-51, looked up)
hyperpolarization of POMC neurons, mean (POMC neurons [1]; ghrelin 50 nM, three minutes, whole cell): 1.47±0.7 mV | frequency of IPSCs in POMC neurons (POMC neurons [3]; ghrelin 50 nM): increase in the frequency of IPSCs | decrease of action potential firing rate of POMC neurons (POMC neurons [2]; ghrelin 50 nM, loose cell attached mode): 50%

leptin: adipostatic hormone
time to depolarization after addition (POMC neurons [1]; leptin 0.1-100 nM): 2 to 10 min | depolarization of POMC cells (POMC neurons [1]; leptin 0.1-100 nM, 72 of 77 POMC cells): 3-30 mV | inhibition of IPSCs in the presence of tetrodotoxin (TTX) (POMC neurons [3]): still inhibited IPSCs | decrease of frequency of GABAergic IPSCs (POMC neurons [3]; 100 nM, leptin in 5 out of 15 cells, NPY in all 12 POMC cells tested): 25% | reversal of small inward current (POMC neurons [4]): approximately −20 mV | effect on adjacent non-fluorescent ARC cells [5]: no effect on 5 of 13 adjacent non-fluorescent cells tested

met-enkephalin (YGGFM)
spontaneous action potential generation (POMC neurons [2]): prevented spontaneous action potential generation

neuropeptide Y [NPY]
hyperpolarization of POMC neurons (average) (POMC neurons [1]; NPY, n=3, all POMC neurons tested): 9±6 mV | inhibition of IPSCs in the presence of tetrodotoxin (TTX) (POMC neurons [3]): still inhibited IPSCs | time to decrease of IPSC frequency (POMC neurons [3]; NPY 100 nM): ≤ 3 min

picrotoxin
IPSCs (POMC neurons [3]): blocked all IPSCs

Reference: patent US7919329B2, “Method for screening for agents that affect food intake” (Oregon Health & Science University, priority 2001, dated 2011)
